According to patent US20060258711A1, “Treatment of drug abuse” (Wyeth, priority 2005, published 2006):

System: rats
Assay: Open field test of locomotor activity with or without cocaine
Assay type: in vivo, rat
Conditions: dosed 1 hour before 5-minute open field test
Experimental: Rats were dosed either with vehicle or with cocaine in the presence or absence of Compound 1 (0.1 mg/kg. sc). One hour after dosing (i.p. & s.c.), rats were put in a open field, where distance moved and zones crossed were recorded by the ethovision program.
Animals were brought to the lab room 1 hour before the start of the experiment. Rats were injected with compound(s) 1 hour before being placed in the open field. Rats were then placed in open field, and the test lasted for five minutes.

In the case of `NCC1Cc2cc(F)cc(-c3c(Cl)cccc3Cl)c2O1` (centres unmarked) [Compound 1, (7-(2,6-dichlorophenyl)-5-fluoro-2,3-dihydrobenzofuran-2-yl)methanamine], the “reversal of the hyperactivity produced by cocaine” value (0.1 mg/kg sc + cocaine 3 mg/kg ip, FIG. 1) was “completely reversed” and the “effect on locomotor activity alone” value (0.1 mg/kg sc + vehicle) was “no effect”.
